# Test results from patent publication US7618986B2, “Method of treating latent tuberculosis” (priority 2006, dated 2009).
# Counter-ions that a name gives are not always drawn. Like-named read-outs stand apart in the source and are kept apart here.
# How the values were obtained:
# M. tuberculosis H37Rv [1] = assay: Hypoxic (anaerobic) clonogenic MBC assay, dormant H37Rv; format: cell-based; conditions: for MBC: Mycobacterium tuberculosis
# [2] = tested on: Mycobacterium tuberculosis H37Rv; assay: Microplate Alamar Blue Assay (MABA), aerobic; format: cell-based
# [3] = tested on: Mycobacterium tuberculosis H37Rv; conditions: MABA, 7H12 media, 90% reduction in fluorescence; cited from earlier work
# M. tuberculosis H37Rv [4] = conditions: hypoxic MBC assay; cited from earlier work
# [5] = Toxicity (MTD, adverse effects) in mice; format: in vivo
# Source text: determination of MTD ([…], MTD) in vivo (C57BL/6 female mice, i.p. administration of single doses, 1 week duration); and
# (§1) An oral MTD was not determined.
# Toxicity study in rats = format: in vivo; conditions: i.v. daily 16 mg/kg, female rats
# [6] = Stability in human plasma; format: in vitro ADME
# Toxicity study in dogs = format: in vivo; conditions: i.v. daily 10.95 mg/kg
# [7] = Plasma concentration after administration to CD2F1 mice; format: in vivo
# Source text: as §1
# [8] = Water solubility and stability of aqueous stock solutions; format: physicochemical; conditions: for solubility in water: hydrochloride salt
# Experimental: Commercially available 4,7-dichloroquinoline (1) first was converted to the 4-fluoro-derivative (2) by refluxing for 6 hours in DMSO with lyophilized potassium fluoride (KF) (1.5 eq) from a 5% aqueous solution.
# HRMS (VG 70-250SE mass spectrometer): Calculated for C16H16ClN5O2 (free amine): m/z 345.0992. […] FAB (VG 70-250SE mass spectrometer). Calculated for C16H17ClN5O2 (M+): m/z 346.
# VERO cells = assay: Cytotoxicity against VERO cells (MTT, 72 hours exposure); format: cell-based; conditions: for IC50: Chlorocebus sabaeus, Vero, read-out: IC50 in VERO cells
# [9] = in vivo, po, 600 mg; cited from earlier work
# [10] = H37RV, pH 6.7, read-out: H37Rv MBC (hypoxic)
# [11] = H37RV, present day anti-TB drugs as positive controls, read-out: H37Rv MBC (hypoxic assay)
# [12] = dormant H37Rv cells, ranges depending on the assay (Table 2), read-out: MBC (minimum bactericidal concentration)
# [13] = dormant H37Rv cells, ranges depending on the assay (Table 2)
# [14] = present day anti-TB drugs as positive controls
# [15] = H37RV, read-out: MBC (minimum bactericidal concentration)
# [16] = pH 6.7, read-out: % Inh (aerobic)
molecule,measurement,setting,value
Cc1nc(C(F)(F)F)nc(NCCCn2ccnc2[N+](=O)[O-])c1C [CF3PM],MBC,M. tuberculosis H37Rv [1]; [10],7.01 to 25 µg/mL
same,inhibition at 6.25 µg/mL,"[2]; aerobic conditions, 6.25 μg/mL, pH 6.7-6.8, read-out: % Inh (aerobic)",23%
"CC[C@H]1OC(=O)[C@H](C)[C@@H](O[C@H]2C[C@@](C)(OC)[C@@H](O)[C@H](C)O2)[C@H](C)[C@@H](O[C@@H]2O[C@H](C)C[C@H](N(C)C)[C@H]2O)[C@](C)(OC)C[C@@H](C)C(=O)[C@H](C)[C@@H](O)[C@]1(C)O [Clarithromycin, clarithromycin]",MBC,M. tuberculosis H37Rv [1]; [11],> 312 µg/mL
same,MBC,M. tuberculosis H37Rv [1]; [12],> 312 µg/mL
same,MBC (minimum bactericidal concentration),M. tuberculosis H37Rv [1]; [13],> 312.5 µg/mL
"NNC(=O)c1ccncc1 [Isoniazid, isoniazid]",expected MIC range (quality control),[3],0.025 to 0.1 µg/mL
same,MBC,M. tuberculosis H37Rv [1]; [11],> 100 µg/mL
same,MBC,M. tuberculosis H37Rv [1]; [12],> 100 µg/mL
same,MBC (minimum bactericidal concentration),M. tuberculosis H37Rv [1]; [13],> 100 µg/mL
"Cc1ncc([N+](=O)[O-])n1CCO [Metronidazole, metronidazole]",activity in hypoxic assay,M. tuberculosis H37Rv [4],activity is observed only at very high concentrations
"CN(C)c1ccc(O)c2c1C[C@H]1C[C@H]3[C@H](N(C)C)C(O)=C(C(N)=O)C(=O)[C@@]3(O)C(O)=C1C2=O [Minocyclin, minocyclin]",MBC (minimum bactericidal concentration),M. tuberculosis H37Rv [1]; [13],>156.25 µg/mL
same,MBC (minimum bactericidal concentration),"M. tuberculosis H37Rv [1]; dormant H37Rv cells, ranges depending on the assay (Table 2), listed as minocyclin",> 156.25 µg/mL
same,H37Rv MBC (hypoxic assay),M. tuberculosis H37Rv [1]; [14],156.25 µg/mL
"O=[N+]([O-])c1nccn1CCCNc1ccnc2cc(Cl)ccc12 [NLCQ-1, 4-[3-(2-Nitro-1-imidazolyl)-propylamino]-7-chloroquinoline hydrochloride]",MTD at 1 week,"[5]; female, C57BL/6, mouse, in vivo, ip, single dose",30 mg/kg
same,adverse effects,"[5]; i.p. 30 mg/kg bolus or 45 mg/kg as 3 fractions of 15 mg/kg every two hours daily, mice",no adverse effects
same,MTD,"[5]; mouse, in vivo, ip, multiple doses",≥ 45 mg/kg
same,MBC,M. tuberculosis H37Rv [1]; [10],3.1 µg/mL
same,MBC,M. tuberculosis H37Rv [1]; [15],3.1 to 18.4 µg/mL
same,adverse effects,Toxicity study in rats,no adverse effects
same,stability in human plasma,[6],good stability in human plasma
same,adverse effects,Toxicity study in dogs,no adverse effects
same,inhibition at 6.25 µg/mL,[2]; [16],0%
same,peak plasma concentration,[7]; i.p. injection of 10 mg/kg,8.9 µg/mL
same,bioavailability,"[7]; mouse, plasma, oral administration of 10 mg/kg",29%
same,peak plasma concentration,[7]; oral administration of 10 mg/kg,0.461 µg/mL
same,hydrophilicity (aqueous solubility) compared with PA-824,[8],more hydrophilic
same,solubility in water,[8],soluble in water
same,IC50,VERO cells,147 µg/mL
"O=[N+]([O-])c1nccn1CCCCNc1ccnc2cc(Cl)ccc12 [NLCQ-2, 4-[4-(2-nitro-1-imidazolyl)-butylamino]-7-chloroquinoline hydrochloride]",MBC,M. tuberculosis H37Rv [1]; [10],6.25 µg/mL
same,MBC,M. tuberculosis H37Rv [1]; [15],4.9 to 9.8 µg/mL
same,inhibition at 6.25 µg/mL,[2]; [16],0%
same,hydrophilicity (aqueous solubility) compared with PA-824,[8],more hydrophilic
same,solubility in water,[8],soluble in water
same,IC50,VERO cells,> 640 µg/mL
same,IC50 in VERO cells,"VERO cells; toxicity, hydrochloride",>640 µg/mL
O=[N+]([O-])c1cn2c(n1)OC[C@@H](OCc1ccc(OC(F)(F)F)cc1)C2 [PA-824],MBC,M. tuberculosis H37Rv [1]; [15],6.4 to 12.8 µg/mL
same,IC50,VERO cells; toxicity,> 640 µg/mL
same,"SI, selectivity index (IC50/MBC)",VERO cells; VERO IC50 / MBC dormant H37Rv,>50-100
same,IC50 in VERO cells,VERO cells; toxicity,>640 µg/mL
"CO[C@H]1/C=C/O[C@@]2(C)Oc3c(C)c(O)c4c(O)c(c(/C=N/N5CCN(C)CC5)c(O)c4c3C2=O)NC(=O)/C(C)=C\C=C\[C@H](C)[C@H](O)[C@@H](C)[C@@H](O)[C@@H](C)[C@H](OC(C)=O)[C@@H]1C [Rifampin, rifampin]",MBC,M. tuberculosis H37Rv [1]; [11],2.5 µg/mL
same,MBC,M. tuberculosis H37Rv [1]; [12],2.5 µg/mL
same,Cmax,[9],8 µg/mL
"[H]/N=C(/N)N[C@H]1[C@H](O)[C@@H](O)[C@H](O[C@@H]2O[C@@H](C)[C@](O)(C=O)[C@H]2O[C@@H]2O[C@@H](CO)[C@H](O)[C@@H](O)[C@@H]2NC)[C@@H](N/C(N)=N\[H])[C@@H]1O [Streptomycin, streptomycin]",MBC,M. tuberculosis H37Rv [1]; [11],12.5 µg/mL
same,MBC,M. tuberculosis H37Rv [1]; [12],> 12.5 µg/mL
same,MBC (minimum bactericidal concentration),M. tuberculosis H37Rv [1]; [13],> 12.5 µg/mL
capreomycin,MBC (minimum bactericidal concentration),M. tuberculosis H37Rv [1]; [13],37.5 µg/mL
same,H37Rv MBC (hypoxic assay),M. tuberculosis H37Rv [1]; [14],37.5 µg/mL
